Results as given in patent US8735601B2, “Pentamethine cyanine fluorescent dye with N-substituting at β-position of conjugated chain” (Dalian University of Technology, priority 2010, dated 2014).

Assay: Absorption and emission spectra of dyes in different solvents
Type: physicochemical
Parameters: key to Δλ1 / Δλ2: Stokes shift in nm; ε1 (molar extinction coefficient) / ε2 (molar extinction coefficient): scale not given here
Conditions: Stokes shift to absorption peak 1; solvent DCM
Description: In the present invention, compounds IIa to IIg were synthesized based on compound II, and their spectral properties were investigated. Compared with the traditional pentamethine cyanine dye, for the novel pentamethine cyanine dye with N-substituting at β-position (deviated position), it was observed that, evident blue shift of absorption and emission wavelengths occurred, absorption wavelength blue shifted even largely than that of emission wavelength, absorption spectrum and fluorescence spectrum were no longer mirror-symmetric and had two absorption peaks and a single emission peak, and larger Stokes shift (minimum 60 and 150 nm, and maximum 90 and 230 nm) appeared.

Question: Which Δλ1 does the source give for `CCN(CC)C(=C\C1=[N+](CC)c2ccccc2C1(C)C)/C=C/C=C1/N(CC)c2ccccc2C1(C)C` [Dye IId] here?
Answer: 88

Same assay, conditions: Stokes shift to absorption peak 1; solvent DMSO

Question: For `CCN(CC)C(=C\C1=[N+](CC)c2ccccc2C1(C)C)/C=C/C=C1/N(CC)c2ccccc2C1(C)C` [Dye IId], which Δλ1 is on record?
Answer: 92

Same assay, conditions: Stokes shift to absorption peak 1; solvent Ethanol

Question: For `CCN(CC)C(=C\C1=[N+](CC)c2ccccc2C1(C)C)/C=C/C=C1/N(CC)c2ccccc2C1(C)C` [Dye IId], which Δλ1 is on record?
Answer: 94

Same assay, conditions: Stokes shift to absorption peak 1; solvent Methanol

Question: With `CCN(CC)C(=C\C1=[N+](CC)c2ccccc2C1(C)C)/C=C/C=C1/N(CC)c2ccccc2C1(C)C` [Dye IId] as the compound, how does the Δλ1 read?
Answer: 96

Same assay, conditions: Stokes shift to absorption peak 1; solvent THF

Question: With `CCN(CC)C(=C\C1=[N+](CC)c2ccccc2C1(C)C)/C=C/C=C1/N(CC)c2ccccc2C1(C)C` [Dye IId] as the compound, how does the Δλ1 read?
Answer: 87

Same assay, conditions: Stokes shift to absorption peak 1; solvent Water

Question: For `CCN(CC)C(=C\C1=[N+](CC)c2ccccc2C1(C)C)/C=C/C=C1/N(CC)c2ccccc2C1(C)C` [Dye IId], which Δλ1 is on record?
Answer: 99

Same assay, conditions: Stokes shift to absorption peak 2; solvent DCM

Question: With `CCN(CC)C(=C\C1=[N+](CC)c2ccccc2C1(C)C)/C=C/C=C1/N(CC)c2ccccc2C1(C)C` [Dye IId] as the compound, how does the Δλ2 read?
Answer: 158

Same assay, conditions: Stokes shift to absorption peak 2; solvent DMSO

Question: Which Δλ2 does the source give for `CCN(CC)C(=C\C1=[N+](CC)c2ccccc2C1(C)C)/C=C/C=C1/N(CC)c2ccccc2C1(C)C` [Dye IId] here?
Answer: 140

Same assay, conditions: Stokes shift to absorption peak 2; solvent Ethanol

Question: With `CCN(CC)C(=C\C1=[N+](CC)c2ccccc2C1(C)C)/C=C/C=C1/N(CC)c2ccccc2C1(C)C` [Dye IId] as the compound, how does the Δλ2 read?
Answer: 157

Same assay, conditions: Stokes shift to absorption peak 2; solvent Methanol

Question: With `CCN(CC)C(=C\C1=[N+](CC)c2ccccc2C1(C)C)/C=C/C=C1/N(CC)c2ccccc2C1(C)C` [Dye IId] as the compound, how does the Δλ2 read?
Answer: 158

Same assay, conditions: Stokes shift to absorption peak 2; solvent THF

Question: For `CCN(CC)C(=C\C1=[N+](CC)c2ccccc2C1(C)C)/C=C/C=C1/N(CC)c2ccccc2C1(C)C` [Dye IId], which Δλ2 is on record?
Answer: 154

Same assay, conditions: Stokes shift to absorption peak 2; solvent Water

Question: Which Δλ2 does the source give for `CCN(CC)C(=C\C1=[N+](CC)c2ccccc2C1(C)C)/C=C/C=C1/N(CC)c2ccccc2C1(C)C` [Dye IId] here?
Answer: 152

Same assay, conditions: solvent DCM

Question: For `CCN(CC)C(=C\C1=[N+](CC)c2ccccc2C1(C)C)/C=C/C=C1/N(CC)c2ccccc2C1(C)C` [Dye IId], which “ε1 (molar extinction coefficient)” value is on record?
Answer: 4.3 cm^−1M

Question: What about the “ε2 (molar extinction coefficient)” value of the same compound?
Answer: 2.9 cm^−1M

Question: What about the λabs1 of the same compound?
Answer: 523 nm

Question: What about the λbs2 of the same compound?
Answer: 453 nm

Question: What about the λem of the same compound?
Answer: 611 nm

Same assay, conditions: solvent DMSO

Question: With `CCN(CC)C(=C\C1=[N+](CC)c2ccccc2C1(C)C)/C=C/C=C1/N(CC)c2ccccc2C1(C)C` [Dye IId] as the compound, how does the “ε1 (molar extinction coefficient)” value read?
Answer: 3.9 cm^−1M

Question: What about the “ε2 (molar extinction coefficient)” value of the same compound?
Answer: 2.7 cm^−1M

Question: What about the λabs1 of the same compound?
Answer: 508 nm

Question: What about the λbs2 of the same compound?
Answer: 460 nm

Question: And the λem?
Answer: 600 nm

Same assay, conditions: solvent Ethanol

Question: For `CCN(CC)C(=C\C1=[N+](CC)c2ccccc2C1(C)C)/C=C/C=C1/N(CC)c2ccccc2C1(C)C` [Dye IId], which “ε1 (molar extinction coefficient)” value is on record?
Answer: 3.5 cm^−1M

Question: What about the “ε2 (molar extinction coefficient)” value of the same compound?
Answer: 2.5 cm^−1M

Question: And the λabs1?
Answer: 516 nm

Question: And the λbs2?
Answer: 453 nm

Question: What about the λem of the same compound?
Answer: 610 nm

Same assay, conditions: solvent Methanol

Question: What does the source list for `CCN(CC)C(=C\C1=[N+](CC)c2ccccc2C1(C)C)/C=C/C=C1/N(CC)c2ccccc2C1(C)C` [Dye IId]?
Answer: ε1 (molar extinction coefficient): 3.9 cm^−1M; ε2 (molar extinction coefficient): 2.8 cm^−1M; λabs1: 513 nm; λbs2: 451 nm; λem: 609 nm

Same assay, conditions: solvent THF

Question: For `CCN(CC)C(=C\C1=[N+](CC)c2ccccc2C1(C)C)/C=C/C=C1/N(CC)c2ccccc2C1(C)C` [Dye IId], which “ε1 (molar extinction coefficient)” value is on record?
Answer: 4.1 cm^−1M

Question: And the “ε2 (molar extinction coefficient)” value?
Answer: 2.1 cm^−1M

Question: And the λabs1?
Answer: 517 nm

Question: And the λbs2?
Answer: 450 nm

Question: What about the λem of the same compound?
Answer: 604 nm

Same assay, conditions: solvent Water

Question: With `CCN(CC)C(=C\C1=[N+](CC)c2ccccc2C1(C)C)/C=C/C=C1/N(CC)c2ccccc2C1(C)C` [Dye IId] as the compound, how does the “ε1 (molar extinction coefficient)” value read?
Answer: 2.9 cm^−1M

Question: And the “ε2 (molar extinction coefficient)” value?
Answer: 2.3 cm^−1M

Question: What about the λabs1 of the same compound?
Answer: 501 nm

Question: What about the λbs2 of the same compound?
Answer: 448 nm

Question: What about the λem of the same compound?
Answer: 600 nm

Assay: Measurement of fluorescence quantum yield (Rhodamine B in ethanol as reference)
Type: physicochemical
Conditions: solvent DCM

Question: With `CCN(CC)C(=C\C1=[N+](CC)c2ccccc2C1(C)C)/C=C/C=C1/N(CC)c2ccccc2C1(C)C` [Dye IId] as the compound, how does the “Φ1 (fluorescence quantum yield)” value read?
Answer: 0.124

Question: And the “Φ2 (fluorescence quantum yield)” value?
Answer: 0.085

Same assay, conditions: solvent DMSO

Question: Which results are given for `CCN(CC)C(=C\C1=[N+](CC)c2ccccc2C1(C)C)/C=C/C=C1/N(CC)c2ccccc2C1(C)C` [Dye IId]?
Answer: Φ1 (fluorescence quantum yield): 0.004; Φ2 (fluorescence quantum yield): 0.004

Same assay, conditions: solvent Ethanol

Question: Which “Φ1 (fluorescence quantum yield)” value does the source give for `CCN(CC)C(=C\C1=[N+](CC)c2ccccc2C1(C)C)/C=C/C=C1/N(CC)c2ccccc2C1(C)C` [Dye IId] here?
Answer: 0.009

Question: And the “Φ2 (fluorescence quantum yield)” value?
Answer: 0.009

Same assay, conditions: solvent Methanol

Question: Which “Φ1 (fluorescence quantum yield)” value does the source give for `CCN(CC)C(=C\C1=[N+](CC)c2ccccc2C1(C)C)/C=C/C=C1/N(CC)c2ccccc2C1(C)C` [Dye IId] here?
Answer: 0.005

Question: And the “Φ2 (fluorescence quantum yield)” value?
Answer: 0.005

Same assay, conditions: solvent THF

Question: Which “Φ1 (fluorescence quantum yield)” value does the source give for `CCN(CC)C(=C\C1=[N+](CC)c2ccccc2C1(C)C)/C=C/C=C1/N(CC)c2ccccc2C1(C)C` [Dye IId] here?
Answer: 0.030

Question: And the “Φ2 (fluorescence quantum yield)” value?
Answer: 0.022

Same assay, conditions: solvent Water

Question: Which “Φ1 (fluorescence quantum yield)” value does the source give for `CCN(CC)C(=C\C1=[N+](CC)c2ccccc2C1(C)C)/C=C/C=C1/N(CC)c2ccccc2C1(C)C` [Dye IId] here?
Answer: 0.001

Question: And the “Φ2 (fluorescence quantum yield)” value?
Answer: 0.001
